Assay results: PMC8287944, “5-Fluorouracil blocks quorum-sensing of biofilm-embedded methicillin-resistant Staphylococcus aureus in mice” (Nucleic Acids Research, 2021)

Assays:
[1] = system: MRSA ATCC 43300; test: Murine tissue cage (foreign-body) infection model, prophylaxis; format: in vivo, Staphylococcus aureus; settings: C57BL/6 mice; for Effect on biofilm / adherent MRSA / Effect on planktonic MRSA infection: prophylactic treatment; for Effect on biofilm / adherent MRSA: explanted cages 2 days post-infection; for Effect on planktonic MRSA infection: tissue cage fluid 2 days post-infection
Protocol: To evaluate the prophylactic efficacy of 5-FU against MRSA infection, we used our murine model of foreign-body infection, which closely mimics human implant-associated infections. This model of foreign-body infection ([26],[27]) was established with the approval of the Kantonale Veterinaeramt Basel-Stadt, Switzerland (permit no. 1710). Experiments were conducted according to the regulations of Swiss veterinary law and performed in the animal house of the Department of Biomedicine, University Hospital Basel, Switzerland. Healthy wild-type female C57BL/6 mice at 13 weeks of age (JanvierLabs, France) kept under specific pathogen-free conditions (biosafety level 2) were anesthetized, followed by the subcutaneous implantation of sterile cylindrical Teflon tissue cages (8.5 × 1 × 30 mm; volume: 1.9 ml) with 130 regularly spaced holes (Angst + Pfister AG, Zurich, Switzerland). They were housed in a 12 hr light/dark cycle (light from 7 am to 7 pm) in a temperature-controlled room (24°C) with free access to regular mice chow and water. Mice were randomly assigned to experimental groups, which were not involved in previous procedures. The mice were randomized into groups, which were treated as follows: saline (untreated growth control; n = 7), saline with 5.2844 mg/kg DPD (n = 4), 50 mg/kg daptomycin (DAP) (Novartis, Basel, Switzerland) (n = 11), 10 mg/kg 5-FU with and without 50 mg/kg DAP (each n = 8), 40 mg/kg 5-FU with or without 50 mg/kg DAP (n = 16 and n = 13, respectively), 40 mg/kg 5-FU with 1 μM DPD (n = 6), or 40 mg/kg 5-FU with 50 mg/kg DAP and 5.2844 mg/kg DPD (n = 8). DAP was given intraperitoneally immediately before implantation, and 5-FU and DPD was given immediately after implantation directly into the lumen of the cage. Afterwards, the cages were infected with 965 CFU of MRSA 43300. At 2 days post-infection, tissue cage fluid was collected, and the planktonic bacterial load was evaluated by plating on blood agar plates. In additional, mice were sacrificed and the tissue cages were explanted under aseptic conditions. The explanted tissue cages were washed twice with phosphate-buffered saline followed by 30 s vortexing, sonication for 3 min at 130 W and another 30 s vortexing to release adherent bacteria from the biofilm. Quantification of adherent bacteria was performed by plating appropriated dilutions on blood agar plates. To determine the prevention rate, the presence of any re-growth of MRSA was examined by further incubation of the cage in tryptic soy broth (TSB) for 48 h at 37°C. MRSA re-growth represents therapy failure, and the prevention rate was defined as the percentage of cages without growth in each treatment group.
Figure 6. Prophylactic effect of 5-FU against MRSA ATCC 43300 in a murine tissue cage infection model. Read-outs were obtained two days after infection with 965 CFU/cage and treatment with saline, saline with 1 μM AI-2, 50 mg/kg daptomycin (DAP), 10 mg/kg 5-FU with or without 50 mg/kg DAP, 40 mg/kg 5-FU with or without 50 mg/kg DAP or 40 mg/kg 5-FU with 50 mg/kg DAP and 5.2844 mg/kg DPD, as indicated below the panels. (A) Effect on planktonic MRSA 43300 two days post-infection. (B) Effect on adherent MRSA after explantation and sonication. (C) Prevention rate. Values in (A) and (B) are median ± IQR and those in (C) are % ([…]; **P < 0.001; ****P < 0.0001; ns, not significant). TEXT PRINTED IN THE PICTURE: (C) DAP: prevention rate (%): 18 | (C) DAP + 5-FU (10): prevention rate (%): 75 | (C) DAP + 5-FU (40): prevention rate (%): 94 | (C) DAP + 5-FU (40) + DPD: prevention rate (%): 12.5 DOUBTS OF THE COPYIST ABOUT THIS PICTURE: Panel C, DAP, prevention rate: 18 or 16 (small print) / Panel C, DAP + 5-FU (10), prevention rate: 75 or 76 (small print) / Panel C: which treatment belongs to each bar was read from the small +/- grid under the plot, so the column alignment is not fully certain

[2] = system: SE 1457 wild type; test: AI-2 activity of SE 1457 wild type; format: cell-based, Staphylococcus epidermidis; settings: 1 μM DPD with increasing 5-FU concentrations, 3 h
Protocol: (§1) To confirm that the phenotype could be restored, 1 μM synthetic (S)-4,5-dihydroxy-2,3-pentanedione (DPD) (Biosynth Carbosynth, Staad, Switzerland) was used. After 3 h under static conditions at 37°C, the supernatant was analysed for AI-2 activity with V. harveyi (MM32).
Supplementary Figure 4 | Bioactivity of 5-FU against Staphylococcus epidermidis (SE). a) Quorum-sensing-associated AI-2 activity of SE 1457 grown for 3 h in the presence of different 5-FU concentrations (note log scale). b) Reversing effect of 1 µM DPD on the AI-2-reducing action of 5-FU (dashed line indicates AI-2 baseline of SE 1457 without 5-FU). Values represent 3 biological replicates expressed as mean ± SD (*, p < 0.05; **, p < 0.01).

[3] = system: MRSA ATCC 43300; test: AI-2 activity of MRSA ATCC 43300; format: cell-based, Staphylococcus aureus; settings: 1 μM DPD
Protocol: as §1
Figure 4. Bioactivity of 5-FU against MRSA ATCC 43300. (A) Quorum sensing-associated AI-2 activity of MRSA 43300 grown for 3 h with different 5-FU concentrations. (B) Effect of different 5-FU concentrations on MRSA 43300 growth. (C) Interference with biofilm formation. (D) Effect on adherent MRSA 43300. Data points represent three biological replicates expressed as mean ± SD (**P < 0.01; ***P < 0.001; ****P < 0.0001).
Figure 5. Phenotype restoration with synthetic AI-2 supplementation. AI-2 activity of MRSA ATCC 43300 was evaluated with and without 1 μM DPD in the presence of different 5-FU concentrations. The dashed line indicates the baseline level of AI-2 of MRSA ATCC 43300 in the absence of 5-FU. Values represent 3 biological replicates expressed as mean ± SD (**P < 0.01; ****P < 0.0001).

[4] = system: MRSA ATCC 43300; set-up: method as in PMID 21576433; settings: implant-associated MRSA infection model; cited from earlier work
[5] = system: AI-2 production by HEK-293AI2 cells expressing MTAN and LuxS; set-up: method as in PMID 29739943; settings: earlier proof-of-concept study; cited from earlier work

Compound	Effect of DPD on prevention rate ([1]; DPD co-administered with 5-FU and DAP)	Effect on biofilm / adherent MRSA [1]	Effect on planktonic MRSA infection [1]	AI-2 activity of SE 1457 with DPD added to 5-FU [2]	Baseline AI-2 activity of MRSA 43300 [3]	AI-2 activity of 5-FU-challenged MRSA supplemented with DPD ([3]; MRSA ATCC 43300)	Clearance rate of daptomycin used alone [4] [%]	AI-2 production in HEK cells [5]
CC(=O)C(=O)[C@@H](O)CO [DPD, (S)-4,5-dihydroxy-2,3-pentanedione]	decreased the prevention rate to the level observed for DAP monotherapy	reversed the 5-FU-dependent inhibition	reversed the 5-FU-dependent inhibition	AI-2 activity returned almost to baseline	little influence	counteracted the effect of 5-FU	–	–
CCCCCCCCCC(=O)N[C@@H](Cc1c[nH]c2ccccc12)C(=O)N[C@H](CC(N)=O)C(=O)N[C@@H](CC(=O)O)C(=O)N[C@@H]1C(=O)NCC(=O)N[C@@H](CCCN)C(=O)N[C@@H](CC(=O)O)C(=O)N[C@H](C)C(=O)N[C@@H](CC(=O)O)C(=O)NCC(=O)N[C@H](CO)C(=O)N[C@@H]([C@H](C)CC(=O)O)C(=O)N[C@@H](CC(=O)c2ccccc2N)C(=O)O[C@@H]1C [DAP, daptomycin]	–	neither 5-FU nor DAP alone was sufficient to contain the infection	failed to clear planktonic MRSA infections	–	–	–	< 20	–
Nc1ncnc2c([C@@H]3N[C@H](CO)[C@@H](O)[C@H]3O)c[nH]c12 [immunicillin-A]	–	–	–	–	–	–	–	significantly decreased
